Here are results for two molecules from ChEMBL document CHEMBL2074425, “Characterization of the 5'-flanking region of the human multidrug resistance protein 2 (MRP2) gene and its regulation in comparison withthe multidrug resistance protein 3 (MRP3) gene” (Eur J Biochem, 2000).

Series [1] concerns the target ATP-binding cassette sub-family C member 2 (Homo sapiens, UniProt Q92887). As to the kind of experiment: (§1) TP_TRANSPORTER: reporter gene activity in promoter constructs in HepG2 cells. The class given is functional, cell-based.
Series [2] concerns the target Multidrug resistance associated protein (Homo sapiens) (UniProt Q96QA9). The series is described as §1. Type of series: functional, cell-based.

Sequence of Multidrug resistance associated protein (Homo sapiens) (Q96QA9 as listed by the source): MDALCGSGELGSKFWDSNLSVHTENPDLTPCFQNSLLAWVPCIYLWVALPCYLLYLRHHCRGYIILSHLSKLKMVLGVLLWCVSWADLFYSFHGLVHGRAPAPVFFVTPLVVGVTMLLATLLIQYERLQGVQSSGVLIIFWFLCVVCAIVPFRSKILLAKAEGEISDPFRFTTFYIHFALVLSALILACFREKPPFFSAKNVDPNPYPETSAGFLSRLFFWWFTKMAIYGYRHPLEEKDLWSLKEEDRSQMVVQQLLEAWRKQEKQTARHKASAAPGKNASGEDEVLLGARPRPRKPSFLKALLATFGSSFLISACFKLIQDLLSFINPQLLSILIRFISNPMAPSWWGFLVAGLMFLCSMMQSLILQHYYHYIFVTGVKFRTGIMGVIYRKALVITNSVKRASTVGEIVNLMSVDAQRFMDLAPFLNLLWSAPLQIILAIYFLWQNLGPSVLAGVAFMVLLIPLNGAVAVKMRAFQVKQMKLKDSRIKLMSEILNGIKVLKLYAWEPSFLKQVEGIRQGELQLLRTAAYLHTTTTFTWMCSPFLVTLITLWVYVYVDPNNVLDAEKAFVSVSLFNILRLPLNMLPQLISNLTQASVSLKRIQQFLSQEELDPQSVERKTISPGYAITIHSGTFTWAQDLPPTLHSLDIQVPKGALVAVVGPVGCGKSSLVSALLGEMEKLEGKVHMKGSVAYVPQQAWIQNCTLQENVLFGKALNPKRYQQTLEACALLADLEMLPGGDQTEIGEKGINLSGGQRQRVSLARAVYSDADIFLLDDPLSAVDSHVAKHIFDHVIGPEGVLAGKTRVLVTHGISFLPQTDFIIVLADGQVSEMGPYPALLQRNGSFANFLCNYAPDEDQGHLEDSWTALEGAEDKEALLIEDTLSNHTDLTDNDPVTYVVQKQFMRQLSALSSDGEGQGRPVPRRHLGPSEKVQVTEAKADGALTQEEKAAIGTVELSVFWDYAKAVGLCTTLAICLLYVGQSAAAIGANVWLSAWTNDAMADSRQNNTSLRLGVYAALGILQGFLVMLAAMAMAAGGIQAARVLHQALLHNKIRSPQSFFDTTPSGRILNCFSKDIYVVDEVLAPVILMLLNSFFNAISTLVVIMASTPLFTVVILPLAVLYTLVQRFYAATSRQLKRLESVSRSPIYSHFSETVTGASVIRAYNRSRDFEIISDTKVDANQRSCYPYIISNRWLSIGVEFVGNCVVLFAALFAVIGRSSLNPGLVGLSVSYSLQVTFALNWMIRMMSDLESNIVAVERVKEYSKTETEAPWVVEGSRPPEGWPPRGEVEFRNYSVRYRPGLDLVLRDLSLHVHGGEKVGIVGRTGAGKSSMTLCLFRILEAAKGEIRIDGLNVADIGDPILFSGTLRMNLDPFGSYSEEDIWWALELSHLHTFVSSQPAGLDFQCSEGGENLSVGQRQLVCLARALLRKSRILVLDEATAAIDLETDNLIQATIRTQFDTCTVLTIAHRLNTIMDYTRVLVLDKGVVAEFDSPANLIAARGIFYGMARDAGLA
Sequence of ATP-binding cassette sub-family C member 2 (Q92887 whole entry): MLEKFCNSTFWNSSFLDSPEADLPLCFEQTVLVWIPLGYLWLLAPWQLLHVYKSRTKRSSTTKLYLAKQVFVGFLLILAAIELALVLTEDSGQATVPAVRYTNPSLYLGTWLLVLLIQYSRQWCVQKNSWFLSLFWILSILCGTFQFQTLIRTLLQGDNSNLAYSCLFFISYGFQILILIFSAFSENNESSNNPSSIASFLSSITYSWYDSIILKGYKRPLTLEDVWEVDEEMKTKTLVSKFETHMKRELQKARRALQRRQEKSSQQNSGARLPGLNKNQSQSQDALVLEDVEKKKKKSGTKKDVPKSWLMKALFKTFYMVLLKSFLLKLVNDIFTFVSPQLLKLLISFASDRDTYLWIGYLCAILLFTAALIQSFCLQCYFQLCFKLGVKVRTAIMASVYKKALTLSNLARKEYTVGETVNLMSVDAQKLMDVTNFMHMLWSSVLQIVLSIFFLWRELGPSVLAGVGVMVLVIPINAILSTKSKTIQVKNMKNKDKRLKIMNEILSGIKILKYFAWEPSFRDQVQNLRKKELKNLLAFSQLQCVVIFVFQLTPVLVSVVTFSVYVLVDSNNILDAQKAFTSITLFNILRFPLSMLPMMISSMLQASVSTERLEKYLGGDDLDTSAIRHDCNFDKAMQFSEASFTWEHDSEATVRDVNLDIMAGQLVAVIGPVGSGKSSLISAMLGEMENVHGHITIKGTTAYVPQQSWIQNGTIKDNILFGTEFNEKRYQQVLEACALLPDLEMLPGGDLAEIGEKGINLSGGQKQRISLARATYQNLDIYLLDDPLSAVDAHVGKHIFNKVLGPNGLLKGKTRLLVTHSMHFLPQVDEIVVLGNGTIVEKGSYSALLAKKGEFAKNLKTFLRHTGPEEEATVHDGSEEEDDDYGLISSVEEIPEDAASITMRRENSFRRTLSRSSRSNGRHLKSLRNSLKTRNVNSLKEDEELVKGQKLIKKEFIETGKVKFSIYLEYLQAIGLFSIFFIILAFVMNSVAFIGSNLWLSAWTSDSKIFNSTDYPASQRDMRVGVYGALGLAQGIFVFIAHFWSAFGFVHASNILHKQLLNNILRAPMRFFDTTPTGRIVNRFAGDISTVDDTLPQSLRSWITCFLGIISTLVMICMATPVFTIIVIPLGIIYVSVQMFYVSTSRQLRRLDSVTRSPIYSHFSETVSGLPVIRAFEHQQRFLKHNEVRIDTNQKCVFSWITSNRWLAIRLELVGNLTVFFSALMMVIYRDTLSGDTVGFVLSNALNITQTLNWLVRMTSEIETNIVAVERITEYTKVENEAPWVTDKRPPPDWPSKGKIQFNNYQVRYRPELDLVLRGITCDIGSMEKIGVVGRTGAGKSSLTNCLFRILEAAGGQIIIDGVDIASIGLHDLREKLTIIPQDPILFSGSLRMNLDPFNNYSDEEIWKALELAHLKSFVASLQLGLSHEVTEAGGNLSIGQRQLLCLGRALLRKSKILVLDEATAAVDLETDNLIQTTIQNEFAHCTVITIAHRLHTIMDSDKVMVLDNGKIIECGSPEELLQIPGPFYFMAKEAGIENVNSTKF

For the molecule `COC(=O)Nc1nc2ccc(C(=O)c3cccs3)cc2[nH]1` [NOCODAZOLE], the Activity result in series [1] is “inducer [+]”. `COC(=O)Nc1nc2cc(C(=O)c3cccs3)ccc2[nH]1`: the Activity entry in series [2] was “inducer [+]”.
